Consider two molecules from patent US9801953B2, “Nanoparticles carrying nucleic acid cassettes for expressing RNA” (EMORY UNIVERSITY, priority 2012, dated 2017).

The subject of data set [1] is MIA PaCa-2 cells. The data set is described as follows: Crystal violet cell proliferation assay. It is filed as cell-based. To be noted: Homo sapiens. The source says: Survivin is an anti-cell death gene that confers resistance of cancer cells to therapeutic agents. […] However, SV40-NLS-QD-siRNA nanocassettes could not be used for in vivo delivery due to the lack of specificity. Inhibition of survivin expression led to the activation of the apoptotic cell death since a high level of active caspase 3 (17 KDa fragments) was detected in those cell groups by Western blot analysis (FIG. 6B). Targeted internalization of hATF QD-survivin siRNA expressing nanocassettes were further confirmed in the MIA PaCa-2 cell line (FIG. 6C).
The effect of survivin gene silencing using hATF-QD-Survivin siRNA expressing nanocassettes was examined on cell sensitivity to chemotherapy drugs. […] Pancreatic cancer cells have a low sensitivity to free gemcitabine treatment and 60% of viable cells were detected by cell proliferation assay 72 h following 100 μM of gemcitabine treatment (FIG. 7A).
Crystal violet assay was used to determine the percentage of viable cells. […] Percentage of viable cells in the experimental groups was determined by measurements O.D. at 590 nm using Spectra Max Plus (Molecular Devices, Sunnyvale, Calif.). […] Cell lysates were analyzed for their levels of caspase 3-like activity, which is generated by caspases 3, 7, and 10, using an Ac-DEVD-AFC substrate (Calbiochem, San Diego, Calif.). […]

Data set [2] deals with luciferase positive MCF-10DCIS tumors. Put plainly: Bioluminescence imaging of gene silencing in orthotopic breast cancer xenografts. It is filed as in vivo, nude mice. As for the experimental part:
One of the major obstacles in applying siRNA technology to cancer therapy is the low delivery and gene silencing efficiencies in the tumor following systemic administration. To determine the gene silencing efficiency of uPAR-targeted siRNA expressing nanocassettes, hATF-QD-Luc siRNA nanocassettes were injected via the tail vein into nude mice bearing orthotopic luciferase positive MCF-10DCIS tumors. Non-invasive bioluminescence imaging was used at different time points to determine changes in the luciferase activity in the tumors. Twenty-four hours after the injection, the level of luciferase activity decreased by 42% in the mice that received hATF-QD-Luc siRNA nanocassettes.
To determine whether the changes in luciferase activity in the tumor were the result of specific silencing of the luciferase gene, mice bearing MCF-10DCIS tumors in the low abdominal mammary gland received a tail vein injection of either hATF-QD-Luc siRNA or hATF-QD-control siRNA nanocassettes. […] Therefore, the effect of down regulation of luciferase gene expression is likely due to the targeted delivery of luciferase siRNA-expressing nanocassettes into the tumor.

The conditions of data set [3]: mouse, in vivo.
Procedure: The tumor bearing mice then received 200 pmol of QDs carrying luciferase siRNA-expressing DNA cassettes (about 2 nmol of DNA cassettes) by tail vein injection. Before and at different time points following the nanoparticle administration, 2 mg/Kg of luciferin substrate was injected intraperitoneally into the mice for 5 min before each bioluminescence imaging procedure using identical imaging conditions and an Olympus OV-100 small animal imaging system (Olympus America Inc.).
Data set [4] relates to MCF-10DCIS human breast cancer cells. The data set is described as follows: Target specificity / intracellular delivery of nanoparticles, fluorescence microscopy. It is filed as cell-based. To be noted: 15 pmol of QDs, 24 h. The method, then:
(§1) To further quantify gene silencing efficiency in tumor cells in vitro and the detection of dynamic changes in the inhibition of gene expression in animal tumor models in vivo using bioluminescence imaging, U6-luciferase (Luc) siRNA expressing nanocassettes from p-Silencer-firefly luciferase shRNA plasmid were amplified. […] The inhibitory effect was enhanced as the copy number of Luc siRNA nanocassettes on each QD increased from 2 to 10 or 20 (FIG. 4B).
Cells were plated in 24-well culture plates for 24 h and then incubated with various nanoparticles at an equal molar concentration (15 pmol of QDs) for 24 h. Control unconjugated DNA cassettes or plasmids were transfected into cells. As a delivery efficiency control, siRNA expressing nanocassettes were also conjugated to QDs with the NLS peptides from SV40 virus, CGGGPKKKRKVE (SEQ ID NO: 10). The peptide sequence was provided by Dr. Steven Dowdy at University of California, San Diego. The SV-40-NLS peptides were synthesized by Genscript USA Inc. (Piscataway, N.J.). Culture plates were then examined using an inverted Olympus fluorescence microscope.

Data set [5] concerns firefly luciferase gene stably transfected human breast cancer MCF-10DCIS cell. The data set is described as follows: Luciferase activity assay in cell lysates. To be noted: MCF-10DCIS cell lysates, 24 h after nanoparticle incubation. The data set is classed as cell-based.
From the text: as §1
Following different treatments, cells were collected from culture plates. Cell lysates were examined for luciferase activity using the Single Luciferase Assay System (Promega Corp., Madison, Wis.). The level of the luciferase activity was measured by a luminometer (Lumistar galaxy, BMG, Winooski, VM) for single samples or using the Xenogen IVIS system (Caliper Life Sciences, Mountain View, Calif.) for 96-well plates.

Consider `Nc1ccn([C@@H]2O[C@H](CO)[C@@H](O)C2(F)F)c(=O)n1` [gemcitabine], for which the viability at 1 µM in data set [1] (1 μM gemcitabine, free drug treated group, read-out: percentage of viable cells) was 94%. Besides, in data set [1] (100 μM gemcitabine, 72 h, read-out: viable cells), the viability at 100 µM came out at 60%.
As for “hATF-QD-Luc siRNA nanocassettes: U6-luciferase siRNA expressing DNA nanocassettes conjugated to QDs with human ATF targeting ligands”, the “decrease in level of luciferase activity in tumor” value in data set [2] (24 h after tail vein injection, 200 pmol QDs) is recorded as 42%. Moreover, the “inhibitory effect on luciferase activity in tumor” value in data set [2] (72 h after injection) was “further enhanced”. For the same molecule, the “decrease in luciferase activity in the tumor” value in data set [2] (72 h after injection, specificity experiment (FIG. 5C)) is on record as > 90%. The “luciferase activity in tumor versus pre-injection” value in data set [2] (140 h after injection) is given as “returned to the pre-injection level”. In addition, in data set [2] (144 h after injection (FIG. 5C)), the “inhibitory effect on luciferase activity in the tumor” value is “still strong”. Besides, in data set [2] (after tail vein injection), the “duration of inhibitory effect on luciferase activity” value is “over 120 h”. For the same molecule, the “levels of QD accumulation in the liver and spleen” value in data set [3] is reported as “markedly decreased”. Besides, in data set [4], the “entry into cells (intracellular delivery efficiency)” value is “could efficiently enter”. Besides, the luciferase activity entry in data set [5] is given as “decrease in luciferase activity”.
